Laboratory results: ChEMBL document CHEMBL4017451, “Discovery of a series of 1,3,4-oxadiazole-2(3H)-thione derivatives containing piperazine skeleton as potential FAK inhibitors” (Bioorg Med Chem, 2017)

Experiments:
HeLa = assay: cells; conditions: Homo sapiens, 48 h
BGC-823 = assay: cells; conditions: Homo sapiens, BGC-823, 48 h
Description: Antiproliferative activity against human BGC823 cells after 48 hrs by MTT assay

SW 1116 = assay: Antiproliferative activity against human SW1116 cells after 48 hrs by MTT assay; conditions: SW 1116, 48 h
HepG2 = assay: cells; conditions: Homo sapiens, HepG2, 48 h

| Structure (SMILES) | IC50 (HeLa) | IC50 (BGC-823) | IC50 (SW 1116) | IC50 (HepG2) |
| --- | --- | --- | --- | --- |
| S=c1oc(-c2ccc3c(c2)OCCO3)nn1CN1CCN(c2cccc(Cl)c2)CC1 | 47.2 µM | > 50 µM | > 50 µM | > 50 µM |
| Cc1ccc(N2CCN(Cn3nc(-c4ccc5c(c4)OCCO5)oc3=S)CC2)c(C)c1 | > 50 µM | 28.3 µM | > 50 µM | 28.4 µM |
| FC(F)(F)c1cccc(N2CCN(Cn3nc(-c4ccc5c(c4)OCCO5)oc3=S)CC2)c1 | > 50 µM | > 50 µM | 47.1 µM | 5.78 µM |
| S=c1oc(-c2ccc3c(c2)OCCO3)nn1CN1CCN(C(c2ccccc2)c2ccccc2)CC1 | > 50 µM | > 50 µM | 21.6 µM | 9.12 µM |
| S=c1oc(-c2ccc3c(c2)OCCO3)nn1CN1CCN(c2ccccn2)CC1 | 25.1 µM | 25.9 µM | 9.49 µM | 11.3 µM |
| S=c1oc(-c2ccc3c(c2)OCCO3)nn1CN1CCN(c2ccc(Cl)cc2)CC1 | > 50 µM | > 50 µM | > 50 µM | > 50 µM |
| COc1cccc(N2CCN(Cn3nc(-c4ccc5c(c4)OCCO5)oc3=S)CC2)c1 | 18 µM | > 50 µM | > 50 µM | 21.4 µM |
| Fc1ccccc1N1CCN(Cn2nc(-c3ccc4c(c3)OCCO4)oc2=S)CC1 | 37.3 µM | > 50 µM | 37.8 µM | > 50 µM |
| S=c1oc(-c2ccc3c(c2)OCCO3)nn1CN1CCN(Cc2ccccc2)CC1 | 27.1 µM | 28.7 µM | > 50 µM | 18 µM |
| S=c1oc(-c2ccc3c(c2)OCCO3)nn1CN1CCN(c2ccccc2)CC1 | > 50 µM | > 50 µM | > 50 µM | > 50 µM |
| S=c1oc(-c2ccc3c(c2)OCCO3)nn1CN1CCN(c2cccc(Cl)c2Cl)CC1 | > 50 µM | 22.6 µM | 37.1 µM | > 50 µM |
| COc1ccc(N2CCN(Cn3nc(-c4ccc5c(c4)OCCO5)oc3=S)CC2)cc1 | > 50 µM | 18.9 µM | 24.2 µM | > 50 µM |
| O=[N+]([O-])c1ccc(N2CCN(Cn3nc(-c4ccc5c(c4)OCCO5)oc3=S)CC2)cc1 | 31.7 µM | > 50 µM | > 50 µM | 29.5 µM |
| S=c1oc(-c2ccc3c(c2)OCCO3)nn1CN1CCN(c2ccc(Cl)c(Cl)c2)CC1 | > 50 µM | > 50 µM | 33.4 µM | 23.8 µM |
| COc1ccccc1N1CCN(Cn2nc(-c3ccc4c(c3)OCCO4)oc2=S)CC1 | > 50 µM | 19.5 µM | 16.9 µM | 15.5 µM |
| S=c1oc(-c2ccc3c(c2)OCCO3)nn1CN1CCN(c2ccccc2Cl)CC1 | 37.4 µM | > 50 µM | > 50 µM | 11.4 µM |
| Fc1ccc(N2CCN(Cn3nc(-c4ccc5c(c4)OCCO5)oc3=S)CC2)cc1 | > 50 µM | > 50 µM | > 50 µM | > 50 µM |
| O=c1[nH]cc(F)c(=O)[nH]1 [FLUOROURACIL] | 9.02 µM | 17.4 µM | 18.5 µM | 13.3 µM |
